# Assay results from patent publication US20240246964A1 (Arbutus Biopharma Corporation, priority 2021, published 2024).
# What was measured:
# human PD-L1 = human PD-L1 (Homo sapiens (Human), UniProt Q9NZQ7); test: T cell activation luciferase reporter cell culture system (T Cell Activation Assay); assay type: cell-based; settings: luciferase reporter assay; PD-L1 aAPC/CHO-K1 cells with PD-1 effector Jurkat T cells
# [1] = target: PD-L1 His protein / PD-1 Fc protein (Homo sapiens (Human), UniProt Q9NZQ7); test: HTRF Assay (PD-1/PD-L1 interaction); assay type: binding; settings: PD-L1 His 6 nM, PD-1 Fc 6 nM
# Sequence of PD-L1 His protein / PD-1 Fc protein (Q9NZQ7 19-238): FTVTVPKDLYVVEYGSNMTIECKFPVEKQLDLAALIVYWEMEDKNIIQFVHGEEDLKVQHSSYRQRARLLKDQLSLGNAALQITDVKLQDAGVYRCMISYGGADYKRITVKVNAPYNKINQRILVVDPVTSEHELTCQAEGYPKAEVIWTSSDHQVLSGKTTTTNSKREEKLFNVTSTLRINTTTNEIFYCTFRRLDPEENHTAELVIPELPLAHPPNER
# Sequence of human PD-L1 (Q9NZQ7 19-290): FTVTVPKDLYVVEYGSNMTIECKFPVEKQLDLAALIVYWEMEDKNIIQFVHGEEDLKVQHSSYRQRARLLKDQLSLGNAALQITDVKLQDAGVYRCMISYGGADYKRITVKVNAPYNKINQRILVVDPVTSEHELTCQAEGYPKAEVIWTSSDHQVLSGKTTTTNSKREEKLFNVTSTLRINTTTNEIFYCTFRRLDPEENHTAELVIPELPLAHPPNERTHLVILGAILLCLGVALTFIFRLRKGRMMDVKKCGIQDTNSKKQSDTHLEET
SMILES,EC50 (human PD-L1) [nM],IC50 [1] [nM]
"COc1cc(-c2ncnc(-c3cccc(NC(=O)c4cn(C)c(=O)n(C)c4=O)c3Cl)c2Cl)ccc1CNC[C@@H]1CCC(=O)N1 [Compound 708, (S)—N-(2-Chloro-3-(5-chloro-6-(3-methoxy-4-((((5-oxopyrrolidin-2-yl)methyl)amino)methyl)phenyl)pyrimidin-4-yl)phenyl)-1,3-dimethyl-2,4-dioxo-1,2,3,4-tetrahydropyrimidine-5-carboxamide]",1320,0.29
"COc1nc(-c2ccnc(-c3cccc(NC(=O)c4cn(C)c(=O)n(C)c4=O)c3Cl)c2Cl)ccc1CNC1CCN(C(C)=O)CC1 [Compound 721, N-(3-(5-(((1-Acetylpiperidin-4-yl)amino)methyl)-3′-chloro-6-methoxy-[2,4′-bipyridin]-2′-yl)-2-chlorophenyl)-1,3-dimethyl-2,4-dioxo-1,2,3,4-tetrahydropyrimidine-5-carboxamide]",1320,0.7
"COc1nc(-c2ccnc(-c3cccc(NC(=O)c4cn(C)c(=O)n(C)c4=O)c3Cl)c2Cl)ccc1CN1CC2(C1)CN(C(C)=O)C2 [Compound 731, N-(3-(5-((6-Acetyl-2,6-diazaspiro[3.3]heptan-2-yl)methyl)-3′-chloro-6-methoxy-[2,4′-bipyridin]-2′-yl)-2-chlorophenyl)-1,3-dimethyl-2,4-dioxo-1,2,3,4-tetrahydropyrimidine-5-carboxamide]",1170,0.9
"COc1nc(-c2ccnc(-c3cccc(NC(=O)c4cn(C)c(=O)n(C)c4=O)c3Cl)c2Cl)ccc1CNC[C@H](C)O [Compound 745, (S)—N-(2-Chloro-3-(3′-chloro-5-(((2-hydroxypropyl)amino)methyl)-6-methoxy-[2,4′-bipyridin]-2′-yl)phenyl)-1,3-dimethyl-2,4-dioxo-1,2,3,4-tetrahydropyrimidine-5-carboxamide]",372,0.31
"COc1cc(-c2ncnc(-c3cccc(NC(=O)c4cn(C)c(=O)n(C)c4=O)c3Cl)c2Cl)ccc1CNC[C@H](C)O [Compound 746, (S)—N-(2-Chloro-3-(5-chloro-6-(4-(((2-hydroxypropyl)amino)methyl)-3-methoxyphenyl)pyrimidin-4-yl)phenyl)-1,3-dimethyl-2,4-dioxo-1,2,3,4-tetrahydropyrimidine-5-carboxamide]",2080,1.29
"COc1nc(-c2cccc(-c3ccnc(-c4cc(OC)c5nc(CN6CC7(CC(O)C7)C6)nn5c4)c3Cl)c2Cl)ccc1CNC(C)C [Compound 753, 2-((6-(3-Chloro-4-(2-chloro-3-(5-((isopropylamino)methyl)-6-methoxypyridin-2-yl)phenyl)pyridin-2-yl)-8-methoxy-[1,2,4]triazolo[1,5-a]pyridin-2-yl)methyl)-2-azaspiro[3.3]heptan-6-ol]",87,0.2
"COc1nc(-c2cccc(-c3ccnc(-c4cc(OC)c5nc(CN[C@H]6CC[C@H](O)CC6)nn5c4)c3Cl)c2Cl)ccc1CNC(C)C [Compound 758, (1r,4r)-4-(((6-(3-Chloro-4-(2-chloro-3-(5-((isopropylamino)methyl)-6-methoxypyridin-2-yl)phenyl)pyridin-2-yl)-8-methoxy-[1,2,4]triazolo[1,5-a]pyridin-2-yl)methyl)amino)cyclohexanol]",354,0.24
"COc1nc(-c2cccc(-c3ccnc(-c4cc(OC)c5nc(CNC(C)C)nn5c4)c3Cl)c2Cl)ccc1CNC(C)C [Compound 763, N-((6-(2-chloro-3-(3-chloro-2-(2-((isopropylamino)methyl)-8-methoxy-[1,2,4]triazolo[1,5-a]pyridin-6-yl)pyridin-4-yl)phenyl)-2-methoxypyridin-3-yl)methyl)propan-2-amine]",650,0.25
"COc1nc(-c2cccc(-c3ccnc(-c4cc(OC)c5nc(CNC[C@@H]6CCC(=O)N6)nn5c4)c3Cl)c2Cl)ccc1CNC(C)C [Compound 764, (S)-5-((((6-(3-chloro-4-(2-chloro-3-(5-((isopropylamino)methyl)-6-methoxypyridin-2-yl)phenyl)pyridin-2-yl)-8-methoxy-[1,2,4]triazolo[1,5-a]pyridin-2-yl)methyl)amino)methyl)pyrrolidin-2-one]",865,0.56
"COc1nc(-c2cccc(-c3ccnc(-c4cc(OC)c5nc(CNC6CCN(C(C)=O)CC6)nn5c4)c3Cl)c2Cl)ccc1CNC(C)C [Compound 765, 1-(4-(((6-(3-Chloro-4-(2-chloro-3-(5-((isopropylamino)methyl)-6-methoxypyridin-2-yl)phenyl)pyridin-2-yl)-8-methoxy-[1,2,4]triazolo[1,5-a]pyridin-2-yl)methyl)amino)piperidin-1-yl)ethan-1-one]",1280,0.28
"COc1nc(-c2cccc(-c3ccnc(-c4cc(OC)c5nc(CN6CC7(C6)CN(C(C)=O)C7)nn5c4)c3Cl)c2Cl)ccc1CNC(C)C [Compound 767, 1-(6-((6-(3-Chloro-4-(2-chloro-3-(5-((isopropylamino)methyl)-6-methoxypyridin-2-yl)phenyl)pyridin-2-yl)-8-methoxy-[1,2,4]triazolo[1,5-a]pyridin-2-yl)methyl)-2,6-diazaspiro[3.3]heptan-2-yl)ethan-1-one]",92.1,0.24
"COc1nc(-c2cccc(-c3ccnc(-c4cc5c(=O)n(C)c(CN6CC(C)(O)C6)nn5c4)c3Cl)c2Cl)ccc1CN1CC(C)(O)C1 [Example 231, 6-(3-Chloro-4-(2-chloro-3-(5-((3-hydroxy-3-methylazetidin-1-yl)methyl)-6-methoxypyridin-2-yl)phenyl)pyridin-2-yl)-2-((3-hydroxy-3-methylazetidin-1-yl)methyl)-3-methylpyrrolo[2,1-f][1,2,4]triazin-4(3H)-one]",105,3.53
"COc1cc(-c2nccc(-c3cccc(-c4ccc(CNC5CCN(C(C)=O)CC5)c(OC)n4)c3Cl)c2Cl)ccc1CN1CC[C@H](C(=O)O)C1 [Example 239, (S)-1-(4-(4-(3-(5-(((1-acetylpiperidin-4-yl)amino)methyl)-6-methoxypyridin-2-yl)-2-chlorophenyl)-3-chloropyridin-2-yl)-2-methoxybenzyl)pyrrolidine-3-carboxylic acid]",161,0.19
"COc1cc(-c2nccc(-c3cccc(-c4ccc5c(OC)c(CNC6CCN(C(C)=O)CC6)cc(Cl)c5n4)c3Cl)c2Cl)ccc1CNC[C@@H]1CCC(=O)N1 [Example 241, (S)-5-(((4-(4-(3-(6-(((1-Acetylpiperidin-4-yl)amino)methyl)-8-chloro-5-methoxyquinolin-2-yl)-2-chlorophenyl)-3-chloropyridin-2-yl)-2-methoxybenzyl)amino)methyl)pyrrolidin-2-one]",≥ 10000,14.3
"COc1nc(-c2cccc(-c3ccnc(-c4ccc5c(CN(C)CCO)nn(C)c5c4)c3Cl)c2Cl)ccc1CNC[C@@H]1CCC(=O)N1 [Example 247, (S)-5-((((6-(2-Chloro-3-(3-chloro-2-(3-(((2-hydroxyethyl)(methyl)amino)methyl)-1-methyl-1H-indazol-6-yl)pyridin-4-yl)phenyl)-2-methoxypyridin-3-yl)methyl)amino)methyl)pyrrolidin-2-one]",52.4,6.74
"COc1nc(-c2ccnc(-c3cccc4c3CC[C@@H]4Oc3nc(OC)c(CNC4CCN(C(C)=O)CC4)cc3C(F)(F)F)c2Cl)ccc1CNC1CCN(C(C)=O)CC1 [Example 254, (S)-1-(4-(((6-((4-(5-(((1-Acetylpiperidin-4-yl)amino)methyl)-3′-chloro-6-methoxy-[2,4′-bipyridin]-2′-yl)-2,3-dihydro-1H-inden-1-yl)oxy)-2-methoxy-5-(trifluoromethyl)pyridin-3-yl)methyl)amino)piperidin-1-yl)ethan-1-one]",148,94.3
"COc1nc(-c2cccc(-c3ccnc(-c4ccc5c(CNC6CCN(C(C)=O)CC6)nn(C)c5c4)c3Cl)c2Cl)ccc1CNC1CCN(C(C)=O)CC1 [Example 263, 1-(4-(((6-(3-(2-(3-(((1-Acetylpiperidin-4-yl)amino)methyl)-1-methyl-1H-indazol-6-yl)-3-chloropyridin-4-yl)-2-chlorophenyl)-2-methoxypyridin-3-yl)methyl)amino)piperidin-1-yl)ethan-1-one]",≥ 10000,1.71
"COc1cc(-c2nccc(-c3cccc4c3CC[C@@H]4Oc3nc(OC)c(CNC[C@@H]4CCC(=O)N4)cc3C(F)(F)F)c2Cl)ccc1CNC[C@@H]1CCC(=O)N1 [Example 269, (S)-5-((((6-(((S)-4-(3-chloro-2-(3-methoxy-4-(((((S)-5-oxopyrrolidin-2-yl)methyl)amino)methyl)phenyl)pyridin-4-yl)-2,3-dihydro-1H-inden-1-yl)oxy)-2-methoxy-5-(trifluoromethyl)pyridin-3-yl)methyl)amino)methyl)pyrrolidin-2-one]",5.54,12.5
"COc1cc(-c2nccc(-c3cccc(-c4ccc(CNC[C@H](C)O)c(OC)n4)c3Cl)c2Cl)cc2c1CN(CC(N)=O)CC2 [Example 275, (S)-2-(6-(3-Chloro-4-(2-chloro-3-(5-(((2-hydroxypropyl)amino)methyl)-6-methoxypyridin-2-yl)phenyl)pyridin-2-yl)-8-methoxy-3,4-dihydroisoquinolin-2(1H)-yl)acetamide]",≥ 10000,5.36
"CNCc1ccc(-c2cccc(-c3ccnc(-c4ccc5c(CNC)cn(C)c5c4)c3Cl)c2Cl)nc1OC [Example 276, 1-(6-(2-Chloro-3-(3-chloro-2-(1-methyl-3-((methylamino)methyl)-1H-indol-6-yl)pyridin-4-yl)phenyl)-2-methoxypyridin-3-yl)-N-methylmethanamine]",≥ 10000,1.04
"CNCc1ccc(-c2cccc(-c3ccnc(-c4ccc(CN5CC[C@H](C(=O)OC(C)C)C5)c(OC)c4)c3Cl)c2Cl)nc1OC [Example 278, Isopropyl (S)-1-(4-(3-chloro-4-(2-chloro-3-(6-methoxy-5-((methylamino)methyl)pyridin-2-yl)phenyl)pyridin-2-yl)-2-methoxybenzyl)pyrrolidine-3-carboxylate]",258,404
